Measurements as given in patent publication US20200345805A1, “COMPOSITIONS AND METHODS USEABLE FOR TREATMENT OF DRY EYE” (priority 2019, published 2020).
Non-standard residues stand in square brackets, D forms with d. Residues, ends and D or L forms follow the SMILES beside them. Cya = N[C@@H](CS(=O)(=O)O)C(=O)O

System: Integrin αMβ2
Assay: Expression of integrin αMβ2 in ischemic retinopathy of prematurity (ROP) mice after Risuteganib treatment
Assay type: in vivo
Conditions: FIG. 1
Text: FIG. 1 is a graphic showing expression of integrin αMβ2 in ischemic retinopathy of prematurity (ROP) mice after Risuteganib treatment. Risuteganib is a small peptide that acts as an integrin inhibitor. Risuteganib targets multiple integrin subunits, including Integrin αMβ2 which is sometimes referred to as the “compliment 3 receptor” and is actively involved in inflammatory pathways and, in particular, the compliment 3 pathway. […] By causing such inhibition of Integrin αMβ2 Risuteganib may interfere with leucocyte adhesion and trans-endothelial migration, thereby resulting in decreased inflammation and improvement in the symptoms of Dry Eye.

## C[C@@H](O)[C@H](NC(=O)[C@H](CS(=O)(=O)O)NC(=O)CNC(=O)[C@H](CCCNC(=N)N)NC(=O)CN)C(=O)N1CCC[C@H]1C(=O)O [Risuteganib, Glycyl-L-arginylglycyl-3-sulfo-L-alanyl-L-threonyl-L-proline] (H-GRG[Cya]TP-OH)
  expression of Integrin αMβ2: decreases expression
